# Paper PMC4364393 (Journal of medicinal chemistry, 2015)
# Where two headings read alike, the source gives them in different places.
# What was measured:
# [1] = test system: E. faecalis (Van S) ATCC 29212; experiment: MIC, E. faecalis; type: cell-based; conditions: Enterococcus faecalis, ATCC29212, read-out: MIC, E. faecalis (Van S) ATCC 29212
# [2] = test system: E. faecalis (Van B) ATCC 51299; experiment: MIC, E. faecalis; type: cell-based, Enterococcus faecalis
# [3] = test system: E. faecalis (Van A) MMX 486; experiment: MIC, E. faecalis; type: cell-based; conditions: Enterococcus faecalis, read-out: MIC, E. faecalis (Van A) MMX 486
# [4] = test system: Van A phenotype VRE strain; conditions: cited from earlier work
molecule,measurement,setting,value
"CC(=O)NC[C@H]1CN(c2ccc(N3CCOCC3)c(F)c2)C(=O)O1 [Linezolid, linezolid]",MIC,[1],2 µg/mL
same,MIC,"[2]; Enterococcus faecalis, ATCC51299, read-out: MIC, E. faecalis (Van B) ATCC 51299",2 µg/mL
same,MIC,[3],2 µg/mL
"CN[C@H](CC(C)C)C(=O)N[C@H]1C(=O)N[C@@H](CC(N)=O)C(=O)N[C@H]2C(=O)N[C@H]3C(=O)N[C@H](C(=O)N[C@H](C(=O)O)c4cc(O)cc(O)c4-c4cc3ccc4O)[C@H](O)c3ccc(c(Cl)c3)Oc3cc2cc(c3O[C@@H]2O[C@H](CO)[C@@H](O)[C@H](O)[C@H]2O[C@H]2C[C@](C)(N)[C@H](O)[C@H](C)O2)Oc2ccc(cc2Cl)[C@H]1O [Vancomycin, vancomycin]",MIC against Van A phenotype VRE strain,[4]; based on a literature report,512 µg/mL
G4-decanoyl vancomycin derivative [Compound 9b],times more active against a VRE strain (Van B phenotype),"[2]; fold improvement of MIC, compared with vancomycin",64 times
teicoplanin A2-2,MIC against Van A phenotype VRE strain,[4],128 µg/mL
